Source: ChEMBL document CHEMBL3616373, “Identification of N-sulfonyl-tetrahydroquinolines as RORc inverse agonists” (Bioorg Med Chem Lett, 2015)
Activity calls are given as the source filed them. The rule behind the calls is not given here.

Columns and labels:
[1] = target: T1, Bile acid receptor (Homo sapiens) (UniProt Q96RI1); test: Agonist activity at GAL4-fused human FXR expressed in HEK293 cells assessed as activation of basal transcriptional activity up to 10 uM after 20 hrs by dual-glo luciferase reporter gene assay; type: cell-based
T1 sequence (whole entry): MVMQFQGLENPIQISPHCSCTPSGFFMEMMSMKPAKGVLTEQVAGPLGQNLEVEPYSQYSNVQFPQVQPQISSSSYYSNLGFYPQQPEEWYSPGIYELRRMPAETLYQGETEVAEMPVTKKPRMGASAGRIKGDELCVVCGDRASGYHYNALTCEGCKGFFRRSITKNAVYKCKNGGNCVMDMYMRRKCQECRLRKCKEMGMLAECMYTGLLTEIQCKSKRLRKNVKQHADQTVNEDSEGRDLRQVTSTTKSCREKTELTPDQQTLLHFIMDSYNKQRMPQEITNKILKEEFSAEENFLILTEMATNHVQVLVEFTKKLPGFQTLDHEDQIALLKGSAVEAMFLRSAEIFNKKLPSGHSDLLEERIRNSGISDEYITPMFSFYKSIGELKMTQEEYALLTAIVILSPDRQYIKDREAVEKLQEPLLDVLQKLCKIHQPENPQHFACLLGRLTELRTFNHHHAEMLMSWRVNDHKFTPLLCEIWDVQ

[2] = Apparent permeability across apical to basolateral side in MDCK cells at 100 uM after 60 mins by HPLC analysis; type: ADME, cell-based, Canis lupus familiaris; conditions: dog
[3] = target: T2, Oxysterols receptor LXR-alpha (Homo sapiens, UniProt Q13133); test: Antagonist activity at GAL4-fused human LXRalpha expressed in HEK293 cells assessed as inhibition of T0901317-stimulated transcriptional activity after 20 hrs by dual-glo luciferase reporter gene assay; type: cell-based
T2 sequence (Q13133 whole entry): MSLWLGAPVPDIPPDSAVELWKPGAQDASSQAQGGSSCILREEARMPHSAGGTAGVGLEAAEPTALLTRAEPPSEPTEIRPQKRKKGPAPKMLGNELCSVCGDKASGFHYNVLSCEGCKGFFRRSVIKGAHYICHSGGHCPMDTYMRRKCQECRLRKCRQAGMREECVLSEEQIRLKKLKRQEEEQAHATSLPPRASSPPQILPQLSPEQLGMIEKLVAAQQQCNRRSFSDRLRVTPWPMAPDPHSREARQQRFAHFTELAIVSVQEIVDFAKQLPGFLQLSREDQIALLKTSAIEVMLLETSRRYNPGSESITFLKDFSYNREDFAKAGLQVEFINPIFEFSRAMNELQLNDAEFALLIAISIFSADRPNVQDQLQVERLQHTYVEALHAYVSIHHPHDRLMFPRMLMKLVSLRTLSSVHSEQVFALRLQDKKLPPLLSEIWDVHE

[4] = target: T3, Nuclear receptor ROR-beta (Homo sapiens, UniProt Q92753); test: Inverse agonist activity at GAL4-fused human RORb expressed in HEK293 cells assessed as suppression of basal transcriptional activity after 20 hrs by dual-glo luciferase reporter gene assay; type: cell-based
T3 sequence (Q92753 whole entry): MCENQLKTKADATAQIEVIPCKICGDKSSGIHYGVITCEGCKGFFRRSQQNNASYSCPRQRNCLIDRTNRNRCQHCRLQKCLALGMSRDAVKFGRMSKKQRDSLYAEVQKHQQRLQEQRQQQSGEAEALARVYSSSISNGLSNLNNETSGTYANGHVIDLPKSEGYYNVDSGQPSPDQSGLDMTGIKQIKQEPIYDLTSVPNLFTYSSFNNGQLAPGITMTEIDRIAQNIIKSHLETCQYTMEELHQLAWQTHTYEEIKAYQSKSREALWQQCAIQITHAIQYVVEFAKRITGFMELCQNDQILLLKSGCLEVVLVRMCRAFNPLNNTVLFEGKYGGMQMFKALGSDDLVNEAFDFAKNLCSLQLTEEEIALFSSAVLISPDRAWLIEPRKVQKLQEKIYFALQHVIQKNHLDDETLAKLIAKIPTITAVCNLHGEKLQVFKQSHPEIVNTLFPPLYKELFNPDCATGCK

[5] = target: Nuclear receptor ROR-gamma; test: Inverse agonist activity at GAL4-fused human RORc expressed in HEK293 cells assessed as suppression of basal transcriptional activity after 20 hrs by dual-glo luciferase reporter gene assay
[6] = target: Nuclear receptor ROR-alpha (→); test: Inverse agonist activity at GAL4-fused human RORa expressed in HEK293 cells assessed as suppression of basal transcriptional activity after 20 hrs by dual-glo luciferase reporter gene assay
Bile acid receptor = target: T4, Bile acid receptor (Homo sapiens, UniProt Q96RI1); test: Antagonist activity at GAL4-fused human FXR expressed in HEK293 cells assessed as inhibition of T0901317-stimulated transcriptional activity after 20 hrs by dual-glo luciferase reporter gene assay; type: cell-based
T4 sequence (Q96RI1 whole entry): T1 sequence (whole entry)

[7] = target: T5, Nuclear receptor ROR-gamma (Homo sapiens, UniProt P51449); test: Inverse agonist activity at N-terminal 6xHis-tagged human RORc ligand binding domain (241 to 486) expressed in bacterial expression system assessed as inhibition of SRC1 co-activator peptide recruitment after 3 hrs by TR-FRET analysis; type: functional
T5 sequence (P51449 whole entry): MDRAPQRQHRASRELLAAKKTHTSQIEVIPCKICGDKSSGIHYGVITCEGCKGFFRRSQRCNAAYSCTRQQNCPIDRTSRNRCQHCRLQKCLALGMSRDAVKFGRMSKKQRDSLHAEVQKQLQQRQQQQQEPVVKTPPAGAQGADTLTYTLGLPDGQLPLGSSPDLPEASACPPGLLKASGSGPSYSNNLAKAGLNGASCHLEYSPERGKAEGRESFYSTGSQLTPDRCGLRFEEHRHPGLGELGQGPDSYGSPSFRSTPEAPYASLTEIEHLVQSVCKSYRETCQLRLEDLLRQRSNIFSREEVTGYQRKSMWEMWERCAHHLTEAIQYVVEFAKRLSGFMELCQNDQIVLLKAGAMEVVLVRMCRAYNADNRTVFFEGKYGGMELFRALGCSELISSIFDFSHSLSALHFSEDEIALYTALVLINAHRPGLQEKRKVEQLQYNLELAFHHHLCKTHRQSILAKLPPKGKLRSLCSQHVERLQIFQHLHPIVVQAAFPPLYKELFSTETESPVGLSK

HEK293 [8] = test: Selectivity ratio of EC50 for GAL4-fused human RORb expressed in HEK293 cells to EC50 for GAL4-fused human RORc expressed in HEK293 cells; type: cell-based
MDCK = test: Efflux ratio of apparent permeability across apical to basolateral side over basolateral to apical side in MDCK cells at 100 uM after 60 mins by HPLC analysis; type: ADME, cell-based, Canis lupus familiaris; conditions: dog, 1 h
HEK293 [9] = test: Selectivity ratio of EC50 for GAL4-fused human LXRalpha expressed in HEK293 cells to EC50 for GAL4-fused human RORc expressed in HEK293 cells; type: cell-based
PBMC [10] = test: Cytotoxicity against human PBMC assessed as effect on cell physiology after 48 hrs by CellTiter-Glo assay; type: cell-based
PBMC [11] = test: Inhibition of IL-17 production in human PBMC after 48 hrs by Sandwich ELISA; type: functional, cell-based; conditions: for EC50: Homo sapiens, PBMC, 48 h
PBMC [12] = test: Inhibition of IFNgamma production in human PBMC after 48 hrs by Sandwich ELISA; type: functional, cell-based

Activity [1]	Papp A→B at 1 h, 100 µM [2]	EC50 [3]	EC50 [4]	EC50 [5]	EC50 [6]	EC50 (Bile acid receptor)	EC50 [7]	Ratio (MDCK)	SMILES	Ratio EC50 (HEK293 [8])	Ratio EC50 (HEK293 [9])	EC50 (PBMC [10])	%max (PBMC [11])	EC50 (PBMC [11])	EC50 (PBMC [12])
inactive	16 ×10⁻⁶ cm/s	4.2 µM	7.9 µM	0.28 µM	12 µM	4.2 µM	0.086 µM	< 2	O=C(Nc1ccc2c(c1)N(S(=O)(=O)c1ccc(F)cc1)CC2)c1c(F)cccc1F	28	15	–	–	–	–
inactive	12 ×10⁻⁶ cm/s	2.6 µM	4.1 µM	–	–	5.9 µM	–	–	O=C(Nc1ccc2c(c1)N(S(=O)(=O)c1ccc(F)cc1)CCC2)c1ccccc1Cl	–	–	–	–	–	–
inactive	22 ×10⁻⁶ cm/s	4.1 µM	5.4 µM	–	–	7.6 µM	–	–	O=C(Nc1ccc2c(c1)N(S(=O)(=O)c1ccc(F)cc1)CCC2)c1c(F)cccc1F	–	–	> 20 µM	78%	1.4 µM	> 20 µM
inactive	12 ×10⁻⁶ cm/s	–	3.4 µM	–	–	5.3 µM	–	–	O=C(Nc1ccc2c(c1)N(S(=O)(=O)c1ccc(F)cc1)CCC2)c1c(F)cccc1Cl	–	–	> 20 µM	63%	2.1 µM	> 20 µM
